“And” between values parts separate entries of the source, which are not always exact repeats. Equal entries are not always repeated.
Biological target: SSTR2 (Homo sapiens, UniProt P30874)
Assay: NanoBiT β-arrestin 1 recruitment assay, HEK293 (SSTR2 wild-type);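 for Best-fit Bottom: percent of maximal wild-type SSTR2 response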;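 for Best-fit Top: percent of maximal wild-type SSTR2 response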;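 for Bottom (best-fit): percent of maximal wild-type response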;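 for Span (best-fit value): percent of maximal wild-type response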;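 for Span (best-fit): percent of maximal wild-type response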;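 for Top (best-fit value): percent of maximal wild-type response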;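 for Top (best-fit): percent of maximal wild-type response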
Type: cell-based
Parameters: Human full-length SSTR wild-type and mutant vectors were C-terminally fused; expressed in transfected cells; host or cells: HEK293; Best-fit values Bottom / Best-fit values Top / Best-fit values Span / Best-fit Bottom / Best-fit Top / Best-fit Span: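 percent of maximal wild-type SSTR2 response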
Settings: for β-arrestin recruitment: compared with octreotide, Fig. 1c
Procedure: The NanoBiT β-arrestin 1 recruitment assays were carried out according to the method described previously. […] Human full-length SSTR wild-type and mutant vectors were C-terminally fused with a 15-amino acid flexible linker and the small fragment (SmBiT). HEK293 cells were seeded into six-well microplates at a density of 1.0 × 10^6 cells/well and cultured for 24 h at 37 °C with 5% CO2. After that, cells were co-transfected with pcDNA3.1+ vectors encoding SSTR wild-type or mutants and human β-arrestin 1. After transfecting for 24 h, the transfected cells were suspended and seeded into white 96-well plates, and then cultured at 37 °C overnight. After that the medium in each well was exchanged for 90 μl of 0.01% bovine serum albumin containing 20 μl of 50 μM coelenterazine h (Carbosynth) diluted in the HBSS assay buffer and incubated for 40 min at room temperature. Then, ligands diluted in the assay buffer was added to each well and the luminescence intensity was measured using the Synergy H1 microplate reader and detected at room temperature in a time period. All data presented are means of at least three independent experiments.

[1] = SSTR2-WT control of I284A-1, T194A-1, I195A-3, L99A-3, Q102A-1
[2] = SSTR2-WT control of I284A-2/-3, T194A-2/-3, L99A-1/-2, Q102A-3

SSTR2, sequence (P30874 whole entry): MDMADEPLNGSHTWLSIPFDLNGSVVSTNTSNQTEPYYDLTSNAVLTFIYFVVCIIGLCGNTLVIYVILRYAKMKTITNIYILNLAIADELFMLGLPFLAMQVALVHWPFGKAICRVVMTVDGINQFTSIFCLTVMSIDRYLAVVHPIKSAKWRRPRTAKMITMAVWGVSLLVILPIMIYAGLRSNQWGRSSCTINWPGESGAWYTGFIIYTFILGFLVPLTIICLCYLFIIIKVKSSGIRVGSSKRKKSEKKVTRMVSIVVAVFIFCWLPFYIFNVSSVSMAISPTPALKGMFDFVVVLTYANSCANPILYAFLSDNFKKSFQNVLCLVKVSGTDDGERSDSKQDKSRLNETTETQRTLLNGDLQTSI
SSTR2, sequence (P49407 whole entry partner): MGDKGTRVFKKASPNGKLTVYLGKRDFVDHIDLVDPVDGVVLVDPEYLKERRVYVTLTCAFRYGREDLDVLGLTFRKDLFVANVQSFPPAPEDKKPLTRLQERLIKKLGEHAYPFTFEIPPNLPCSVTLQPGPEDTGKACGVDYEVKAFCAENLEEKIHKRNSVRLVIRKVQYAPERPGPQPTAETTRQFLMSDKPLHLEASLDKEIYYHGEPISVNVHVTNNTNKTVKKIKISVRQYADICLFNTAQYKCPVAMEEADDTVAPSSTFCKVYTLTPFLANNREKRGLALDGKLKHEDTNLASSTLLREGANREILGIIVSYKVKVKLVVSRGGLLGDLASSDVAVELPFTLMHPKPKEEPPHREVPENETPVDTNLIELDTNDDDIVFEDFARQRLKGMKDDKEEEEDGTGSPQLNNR

N#Cc1cccc(-c2ccc3ncc(-c4cc(F)cc(F)c4)c(N4CCC(N)CC4)c3c2)c1O [paltusotine]
EC50 (Best-fit EC50, SSTR2-WT control of I284A-1, T194A-1, I195A-3, L99A-3): 420 nM
EC50 (Best-fit EC50, SSTR2-WT control of I284A-2/-3, T194A-2/-3, L99A-1/-2): 455 nM
EC50 (Best-fit EC50, SSTR2-WT-1 control of I195A-1): 306 nM
EC50 (Best-fit EC50, SSTR2-WT-1 control of Y50A-1): 216 nM
EC50 (Best-fit EC50, SSTR2-WT-2 control of I195A-2): 295 nM
EC50 (Best-fit EC50, SSTR2-WT-2 control of Y50A-2): 272 nM
EC50 (Best-fit EC50, SSTR2-WT-3 control of Y50A-3): 306 nM
EC50 (EC50 (best-fit value), SSTR2-WT, run WT-1): 455 nM and 420 nM and 141 nM and 1270 nM and 292 nM
EC50 (EC50 (best-fit value), SSTR2-WT, run WT-2): 455 nM and 399 nM and 131 nM and 141 nM and 613 nM
EC50 (EC50 (best-fit value), SSTR2-WT, run WT-3): 726 nM and 216 nM and 292 nM and 131 nM and 538 nM and 455 nM
EC50 (EC50 (best-fit), WT-1 (D122A set)): 420 nM
EC50 (EC50 (best-fit), WT-1 (F127A set)): 307 nM
EC50 (EC50 (best-fit), WT-1 (I130A set)): 292 nM
EC50 (EC50 (best-fit), WT-1 (Q102A set)): 420 nM
EC50 (EC50 (best-fit), WT-1 (Q126A set)): 306 nM
EC50 (EC50 (best-fit), WT-1 (V103A set)): 306 nM
EC50 (EC50 (best-fit), WT-2 (D122A set)): 399 nM
EC50 (EC50 (best-fit), WT-2 (F127A set)): 272 nM
EC50 (EC50 (best-fit), WT-2 (I130A set)): 141 nM
EC50 (EC50 (best-fit), WT-2 (Q102A set)): 339 nM
EC50 (EC50 (best-fit), WT-2 (Q126A set)): 455 nM
EC50 (EC50 (best-fit), WT-2 (V103A set)): 295 nM
EC50 (EC50 (best-fit), WT-3 (D122A set)): 455 nM
EC50 (EC50 (best-fit), WT-3 (F127A set)): 292 nM
EC50 (EC50 (best-fit), WT-3 (Q102A set)): 455 nM
EC50 (EC50 (best-fit), WT-3 (Q126A set)): 455 nM
EC50 (EC50 (best-fit), WT-3 (V103A set)): 306 nM
EC50 (EC50 (β-arrestin1 recruitment), best-fit, WT-1 (SSTR2-WT set up beside each mutant)): 420 nM and 455 nM and 529 nM
EC50 (EC50 (β-arrestin1 recruitment), best-fit, WT-2 (SSTR2-WT set up beside each mutant)): 455 nM and 420 nM and 613 nM
EC50 (EC50 (β-arrestin1 recruitment), best-fit, WT-3 (SSTR2-WT set up beside each mutant)): 420 nM and 538 nM
EC50 (EC50, β-arrestin recruitment, SSTR2 WT, n=6): 406 ± 5.62 nM
Emax (HEK293): 100%
Best-fit Span (SSTR2-WT control of I284A-1, T194A-1, I195A-3, L99A-3): 106.9
Best-fit Bottom [1]: 1.007
Best-fit LogEC50 [1]: -6.376
Best-fit Top [1]: 107.9
Best-fit Span (SSTR2-WT control of I284A-2/-3, T194A-2/-3, L99A-1/-2): 106.4
Best-fit Bottom [2]: 0.9805
Best-fit LogEC50 [2]: -6.342
Best-fit Top [2]: 107.4
Best-fit Bottom (SSTR2-WT-1 control of I195A-1): 0.5008
Best-fit LogEC50 (SSTR2-WT-1 control of I195A-1): -6.514
Best-fit Span (SSTR2-WT-1 control of I195A-1): 104.2
Best-fit Top (SSTR2-WT-1 control of I195A-1): 104.7
Best-fit Bottom (SSTR2-WT-1 control of Y50A-1): -1.342
Best-fit LogEC50 (SSTR2-WT-1 control of Y50A-1): -6.666
Best-fit Span (SSTR2-WT-1 control of Y50A-1): 105.2
Best-fit Top (SSTR2-WT-1 control of Y50A-1): 103.8
Best-fit Bottom (SSTR2-WT-2 control of I195A-2): 0.4349
Best-fit LogEC50 (SSTR2-WT-2 control of I195A-2): -6.531
Best-fit Span (SSTR2-WT-2 control of I195A-2): 102.7
Best-fit Top (SSTR2-WT-2 control of I195A-2): 103.1
Best-fit Bottom (SSTR2-WT-2 control of Q102A-2): -0.0463
Best-fit LogEC50 (SSTR2-WT-2 control of Q102A-2): -6.469
Best-fit Bottom (SSTR2-WT-2 control of Y50A-2): -1.812
Best-fit LogEC50 (SSTR2-WT-2 control of Y50A-2): -6.566
Best-fit Span (SSTR2-WT-2 control of Y50A-2): 107.5
Best-fit Top (SSTR2-WT-2 control of Y50A-2): 105.7
Best-fit Bottom (SSTR2-WT-3 control of Y50A-3): -2.538
Best-fit LogEC50 (SSTR2-WT-3 control of Y50A-3): -6.515
Best-fit Span (SSTR2-WT-3 control of Y50A-3): 108.6
Best-fit Top (SSTR2-WT-3 control of Y50A-3): 106.1
Span (best-fit value) (SSTR2-WT, run WT-1): 106.4 and 106.9 and 102.6 and 115.9 and 106
Top (best-fit value) (SSTR2-WT, run WT-1): 107.4 and 107.9 and 101.5 and 113.5 and 105.5
Span (best-fit value) (SSTR2-WT, run WT-2): 106.4 and 103.6 and 103.9 and 102.6 and 106.8
Top (best-fit value) (SSTR2-WT, run WT-2): 107.4 and 106.9 and 102.6 and 101.5 and 107.6
Span (best-fit value) (SSTR2-WT, run WT-3): 112.3 and 105.2 and 106 and 103.9 and 104.9 and 106.4
Top (best-fit value) (SSTR2-WT, run WT-3): 109 and 103.8 and 105.5 and 102.6 and 107.1 and 107.4
β-arrestin recruitment (SSTR2 WT): lower efficacy of β-arrestin recruitment
β-arrestin recruitment (SSTR2 WT, listed as Paltusotine): lower β-arrestin recruitment compared with octreotide
Bottom (best-fit) (WT-1 (D122A set)): 1.007
LogEC50 (best-fit) (WT-1 (D122A set)): -6.376
Span (best-fit) (WT-1 (D122A set)): 106.9
Top (best-fit) (WT-1 (D122A set)): 107.9
Bottom (best-fit) (WT-1 (F127A set)): -9.341
LogEC50 (best-fit) (WT-1 (F127A set)): -6.513
Span (best-fit) (WT-1 (F127A set)): 113.7
Top (best-fit) (WT-1 (F127A set)): 104.3
Bottom (best-fit) (WT-1 (I130A set)): -0.4941
LogEC50 (best-fit) (WT-1 (I130A set)): -6.535
Span (best-fit) (WT-1 (I130A set)): 106
Top (best-fit) (WT-1 (I130A set)): 105.5
Span (best-fit) (WT-1 (Q102A set)): 106.9
Bottom (best-fit) (WT-1 (Q126A set)): 0.5008
LogEC50 (best-fit) (WT-1 (Q126A set)): -6.514
Span (best-fit) (WT-1 (Q126A set)): 104.2
Top (best-fit) (WT-1 (Q126A set)): 104.7
Bottom (best-fit) (WT-1 (V103A set)): 0.5008
LogEC50 (best-fit) (WT-1 (V103A set)): -6.514
Span (best-fit) (WT-1 (V103A set)): 104.2
Top (best-fit) (WT-1 (V103A set)): 104.7
Bottom (best-fit) (WT-2 (D122A set)): 3.261
LogEC50 (best-fit) (WT-2 (D122A set)): -6.399
Span (best-fit) (WT-2 (D122A set)): 103.6
Top (best-fit) (WT-2 (D122A set)): 106.9
Bottom (best-fit) (WT-2 (F127A set)): -1.812
LogEC50 (best-fit) (WT-2 (F127A set)): -6.566
Span (best-fit) (WT-2 (F127A set)): 107.5
Top (best-fit) (WT-2 (F127A set)): 105.7
Bottom (best-fit) (WT-2 (I130A set)): -1.026
LogEC50 (best-fit) (WT-2 (I130A set)): -6.849
Span (best-fit) (WT-2 (I130A set)): 102.6
Top (best-fit) (WT-2 (I130A set)): 101.5
Bottom (best-fit) (WT-2 (Q126A set)): 0.9805
LogEC50 (best-fit) (WT-2 (Q126A set)): -6.342
Span (best-fit) (WT-2 (Q126A set)): 106.4
Top (best-fit) (WT-2 (Q126A set)): 107.4
Bottom (best-fit) (WT-2 (V103A set)): 0.4349
LogEC50 (best-fit) (WT-2 (V103A set)): -6.531
Span (best-fit) (WT-2 (V103A set)): 102.7
Top (best-fit) (WT-2 (V103A set)): 103.1
Bottom (best-fit) (WT-3 (D122A set)): 0.9805
LogEC50 (best-fit) (WT-3 (D122A set)): -6.342
Span (best-fit) (WT-3 (D122A set)): 106.4
Top (best-fit) (WT-3 (D122A set)): 107.4
Bottom (best-fit) (WT-3 (F127A set)): -0.4941
LogEC50 (best-fit) (WT-3 (F127A set)): -6.535
Span (best-fit) (WT-3 (F127A set)): 106
Top (best-fit) (WT-3 (F127A set)): 105.5
Bottom (best-fit) (WT-3 (I130A set)): -1.282
LogEC50 (best-fit) (WT-3 (I130A set)): -6.883
Span (best-fit) (WT-3 (I130A set)): 103.9
Top (best-fit) (WT-3 (I130A set)): 102.6
Span (best-fit) (WT-3 (Q102A set)): 106.4
Bottom (best-fit) (WT-3 (Q126A set)): 0.9805
LogEC50 (best-fit) (WT-3 (Q126A set)): -6.342
Span (best-fit) (WT-3 (Q126A set)): 106.4
Top (best-fit) (WT-3 (Q126A set)): 107.4
Bottom (best-fit) (WT-3 (V103A set)): 0.5008
LogEC50 (best-fit) (WT-3 (V103A set)): -6.514
Span (best-fit) (WT-3 (V103A set)): 104.2
Top (best-fit) (WT-3 (V103A set)): 104.7
Bottom (β-arrestin1 recruitment) (best-fit, WT-1): 1.007 and 0.9805 and 0.9636
LogEC50 (β-arrestin1 recruitment) (best-fit, WT-1): -6.376 and -6.342 and -6.276
Span (β-arrestin1 recruitment) (best-fit, WT-1): 106.9 and 106.4 and 106.5
Top (β-arrestin1 recruitment) (best-fit, WT-1): 107.9 and 107.4 and 107.5
Bottom (β-arrestin1 recruitment) (best-fit, WT-2): 0.9805 and 1.007 and 0.8106
LogEC50 (β-arrestin1 recruitment) (best-fit, WT-2): -6.342 and -6.376 and -6.212
Span (β-arrestin1 recruitment) (best-fit, WT-2): 106.4 and 106.9 and 106.8
Top (β-arrestin1 recruitment) (best-fit, WT-2): 107.4 and 107.9 and 107.6
LogEC50 (β-arrestin1 recruitment) (best-fit, WT-3): -6.342 and -6.376 and -6.269
Span (β-arrestin1 recruitment) (best-fit, WT-3): 106.4 and 106.9 and 104.9
Top (β-arrestin1 recruitment) (best-fit, WT-3): 107.4 and 107.9 and 107.1
Fold of WT (β-arrestin recruitment EC50, SSTR2 WT): 1

— PMC9944328 (Nature Communications, 2023)
